Assay results: patent US20100016423A1, “USE OF DRONEDARONE FOR THE TREATMENT OF PATIENTS WITH ARRHYTHMIA AND HAVING AN INCREASE OF CREATININE LEVEL DUE TO DRONEDARONE ADMINISTRATION” (SANOFI-AVENTIS, priority 2008, published 2010)

Key:
[1] = Br. J. Clin. Pharmac., 1993, 36, 125-127; cited from earlier work
[2] = Specific study in healthy subjects: renal handling of creatinine; assay type: in vivo
[3] = ANDROMEDA (EFC4966) clinical trial in patients with a recent severe episode of Congestive Heart failure; assay type: in vivo; details: 400 mg BID
Experimental: Despite the equal distribution of treatment with ACE inhibitors/AII receptor antagonists at baseline, concomitant treatment with these drugs became unbalanced during the course of the ANDROMEDA study, as more patients in the dronedarone 400 mg BID group discontinued these treatments and fewer started them (table 2).
In the dronedarone 400 mg BID group, 14 of 41 patients who discontinued ACE/AII experienced “blood creatinine increased” or “renal impairment” adverse events, versus none among the 18 patients taking placebo in this category. This observation supports the hypothesis that an increase in serum creatinine observed in patients taking dronedarone may have led investigators to discontinue ACE/AII treatment (table 4).

[4] = Clinical trials with dronedarone: serum creatinine levels; assay type: in vivo
Experimental: The instant invention therefore relates to a method of managing the risk of an increased morbidity and mortality rate in patients treated by an association of dronedarone or one of its pharmaceutically acceptable salts and of at least a compound B selected from ACE inhibitors, angiotensin II receptor antagonists and potassium sparing diuretics. Said method is performed by performing the following steps: • a) initially measuring serum creatinine levels, such as within one week after initiation of treatment with dronedarone, which provides a reference level, • b) monitoring serum creatinine levels at regular intervals during treatment of the patient by the compound B (as recommended in the labelling of compound B), • c) if the serum creatinine levels increases above the reference level, clinical judgement should be made to determine if the increase is due to dronedarone, to compound B or to another cause, • d) to help clinical judgment and evaluate if the increase is due to dronedarone, dronedarone can be temporarily interrupted.
Concerning step a) of the methods of the invention, as mentioned before, in most patients with atrial fibrillation or atrial flutter the maximal increase in creatinine levels, compared to the level before administration of dronedarone, was smaller than 30%, with a mean increase ranging from 10 to 15% or more. Then during the treatment with dronedarone, mean creatinine levels remain stable, this corresponds to a plateau.

## CCCCc1oc2ccccc2c1C(=O)c1cc(I)c(OCCN(CC)CC)c(I)c1 [amiodarone]
[1]
  tubular secretion of creatinine: decrease in the tubular secretion of creatinine

## CN/C(=N/CCSCc1nc[nH]c1C)NC#N [cimetidine]
[1]
  tubular secretion of creatinine: decrease in the tubular secretion of creatinine

## CCCCc1oc2ccc(NS(C)(=O)=O)cc2c1C(=O)c1ccc(OCCCN(CCCC)CCCC)cc1 [dronedarone, 2-n-butyl-3-[4-(3-di-n-butylaminopropoxy)benzoyl]-5-methylsulfonamido-benzofuran]
[2]
  effect on creatinine secretion at the tubular level: inhibition of creatinine secretion at the tubular level
  effect on glomerular filtration: no effect
  effect on renal blood flow: no effect
[3]
  patients who died among those who never interrupted ACE inhibitors/AII receptor antagonists: 4%
[3]; of 41 patients who discontinued ACE/AII
  patients who discontinued ACE/AII and experienced blood creatinine increased or renal impairment adverse events: 14 patients
[4]; administration of dronedarone in clinical trials
  change in serum creatinine levels of the patient: slight increase
[4]; after treatment discontinuation
  return of creatinine levels to baseline after treatment discontinuation: within three days
[4]; after treatment initiation
  time of occurrence of creatinine increase after treatment initiation: within two days
[4]; demonstrated in another clinical trial
  return of creatinine to baseline after temporary interruption of dronedarone: ≤ 5 days
[4]; during treatment
  creatinine levels during treatment: remained stable
[4]; most patients with atrial fibrillation or atrial flutter
  maximal increase in creatinine levels compared to the level before administration: smaller than 30%

## COc1cc(Cc2cnc(N)nc2N)cc(OC)c1OC [trimethoprim]
[1]
  tubular secretion of creatinine: decrease in the tubular secretion of creatinine
